The record followed here is patent publication US9606120B2, “Interfering peptides and method for detecting microorganisms” (BIOMÉRIEUX, priority 2012, dated 2017).

The experiment relates to antibodies directed against the HCV Core, NS3 and NS4 proteins. As to the kind of experiment: Vidas anti-HCV antibody immunoenzymatic test (Operating Mode 1) carried out with interfering peptide added. More on the design: species or system human; key to Index: signal / standard S1 value; index ≥1 positive, <1 negative. The settings on record: for Index: pos indices ≧1. The method, then:
The disposable tip (SPR®) acts both as a solid phase and as a pipetting system. The surface of the tip is coated with antigens for the detection of antibodies directed against the HCV Core, NS3 and NS4 proteins. In a first step, the sample is diluted, and then suctioned up and down inside the tip. The anti-HCV antibodies present in the sample will bind to the antigens present inside the tip. Washing steps remove the unbound compounds. During the second step, (mouse) anti-human immunoglobulin (anti-IgG) monoclonal IgGs in Fab′ form, conjugated to recombinant alkaline phosphatase, are suctioned up and down inside the tip and will bind to the anti-HCV human Igs from the sample tested, bound to the antigens of the solid phase. Washing steps again remove the unbound compounds. […] The value of the fluorescence signal is proportional to the concentration of the antibody present in the sample. At the end of the test, the results are calculated automatically in the form of an index by the instrument, by dividing the value obtained by the value of the standard S1 brought back to 1 (value stored in the instrument). Thus, a sample of which the index is greater than or equal to 1 is considered to be positive by the immunoenzymatic test (presence of anti-HCV antibodies) and a sample of which the index is less than 1 is considered to be negative (absence of anti-HCV antibodies). In the paragraphs which follow, this HCV-antibody assay procedure will be referred to as “Operating Mode 1”, which corresponds to the assaying of anti-HCV antibodies without interfering peptide.
Several hundred serum samples, negative for HCV infection and originating from the Rhône-Alpes “Centres de Transfusion Sanguine” [Blood Banks], were screened in order to identify the samples which posed an interference problem. To do this, the samples were assayed according to Operating Mode 1 using the Vidas automated device. Only the sera that were positive according to Operating Mode 1 (index ≧1) were selected.
Such a difference between the result of Operating Mode 1 and that of the negative status established by the “Centres de Transfusion Sanguine” [Blood Banks] makes it possible to select the false-positive sera posing an interference problem.
Table 1 gives, for seven sera posing an interference problem and for the positive control C1, the results of assays carried out according to “Operating Mode 1” with or without the presence of the peptide V7E (SEQ ID No 2) or of the peptide Y7E (SEQ ID No 1). These peptides were added at a concentration of 5 μg/ml during the first step of the immunoenzymatic test protocol which corresponds to the dilution of the sample to be tested and the incubation thereof with the antigens present on the solid phase.
Likewise, table 2 gives, for two other sera posing an interference problem and for the positive control, the results of assays carried out according to Operating Mode 1 of the anti-HCV antibody detection protocol, with or without the presence of the peptide E8E (SEQ ID No 4), of the peptide A8E (SEQ ID No 3), or else of the peptide A6M (SEQ ID No 9). These peptides were added at a concentration of 1 μg/ml during the first step of the immunoenzymatic test protocol, which corresponds to the dilution of the sample to be tested, and the incubation thereof with the antigens present on the solid phase.

Where [1] appears, read: false-positive serum 175 1811 (sample with interference), peptide 5 μg/ml in first step.
[2] abbreviates: false-positive serum 284 2408 (sample with interference), peptide 5 μg/ml in first step.
[3] abbreviates: false-positive serum 498 (sample with interference), peptide 5 μg/ml in first step.
[4] abbreviates: false-positive serum 801 1409 (sample with interference), peptide 5 μg/ml in first step.
Setting [5] is: false-positive serum F53 3009 (sample with interference), peptide 5 μg/ml in first step.
[6] abbreviates: false-positive serum H48 (sample with interference), peptide 5 μg/ml in first step.
Where [7] appears, read: false-positive serum M43 (sample with interference), peptide 5 μg/ml in first step.
Setting [8] is: positive control C1 (commercial serum pool), peptide 5 μg/ml in first step.
Setting [9] is: seven sera posing an interference problem, peptide 5 μg/ml.
[10] abbreviates: false-positive serum 295 (sample with interference), peptide 1 μg/ml in first step.
Where [11] appears, read: false-positive serum F25 (sample with interference), peptide 1 μg/ml in first step.
[12] abbreviates: positive control C1 (commercial serum pool), peptide 1 μg/ml in first step.
Setting [13] is: two sera posing an interference problem, peptide 1 μg/ml.

The sequence “VSPTHYVPE (HCV) [V7E, amino acids 218-226 of the NS4B protein of HCV]” had an Index under setting [1] of 0.49; an Index under setting [2] of 1.51; an Index under setting [3] of 0.35; an Index under setting [4] of 1.04; an Index under setting [5] of 0.39; an Index under setting [6] of 1.17. Also, the Index by setting is: under setting [7], 0.42; under setting [8], 3.06. The “sera in which the interference is neutralized” value (from here on “sera”) under setting [9] is 4/7.

Consider “AQKRLAPYIE (Streptoccus) [A8E, amino acids 64-73 of Streptococcus pneumoniae ribosomal small subunit methyltransferase H protein]”, for which the Index is 0.95 under setting [10], 0.41 under setting [11] and 3.02 under setting [12]. For the same sequence, the “sera” value under setting [13] is on record as 2/2.

Sequence YSPTHYVPE (staphylococcus) [Y7E] showed an Index under setting [1] of 0.47; an Index under setting [2] of 0.86; an Index under setting [3] of 0.14; an Index under setting [4] of 0.71; an Index under setting [5] of 0.32; an Index under setting [6] of 0.88. The Index under setting [7] stood at 0.17 and the Index under setting [8] is given as 3.02. Besides, under setting [9], the “sera” value is “totally neutralize the interference in all the sera”.

Turning to “APYIEKGM (Streptococcus) [A6M, Streptococcus pneumoniae peptide, not according to the invention, used as a negative control, reference compound]”, the Index is, setting by setting: under setting [10], 1.04; under setting [11], 2.90; under setting [12], 3.05. Further, the “sera” value under setting [13] is reported as “does not make it possible to neutralize the interference, in any of the sera”.

With “ECSQHLPYIE (HCV) [E8E, amino acids 53-54 of HCV NS4A fused to amino acids 1-8 of HCV NS4B]”, the Index under setting [10] was found to be 0.90, the Index under setting [11] worked out at 0.85 and the Index under setting [12] is reported as 2.92. Moreover, under setting [13], the “sera” value is listed as 2/2.
